The source of these data is patent US20190330197A1, “SUBSTITUTED NAPHTHALENE DIIMIDES AND THEIR USE” (UCL Business PLC, priority 2015, published 2019).

Experiment [1] relates to subcutaneous xenograft of the pancreatic tumour cell line MiaPaCa-2. Nature of the experiment: Antitumour activity in MiaPaCa-2 subcutaneous xenograft. It counts as in vivo, CD1 nude mice. As to conditions: 15 mg/kg IV twice weekly, FIG. 1. An excerpt:
Study the therapeutic effect of compound 4c (MM41-tri) in comparison to MM41 and Gemcitabine in CD1 nude mice carrying a subcutaneous xenograft of the pancreatic tumour cell line MiaPaCa-2 (5×10^6 cells in the right flank) grown with Matrigel.
• 1 Inoculate SC 5×10^6 Miapaca-2 cells in the right flank (unsupplemented RPMI+Matrigel). • 2 Wait for tumours to establish subcutaneously (approx. 11 days). • 3 Measure size of the tumours weekly until they reach a mean size of 0.1 cm^3. At this stage of the development of the tumours, mice are ready to begin the therapy study. • 4 Re group mice to form 5 therapeutic groups constituted of 8 mice each, carrying approximately 0.1 cm^3 average of the tumour size per group. • 5 Administered corresponding dose of MM41 or compound 4c or Gemcitabine by IV. • Group 1: 8 mice treated with 15 mg/Kg of Gemcitabine twice weekly dose. • Group 2: 8 mice treated with 15 mg/Kg of MM41 (tetrasubstituted ND compound) twice weekly dose. • Group 3: 8 mice treated with 15 mg/Kg of Compound 4c twice weekly dose. • Group 4: 8 mice treated with 10 mg/Kg of Compound 4c twice weekly dose. • Group 5: 8 control mice treated with saline only twice weekly.

The test system of experiment [2] is Mia-PaCa2 (pancreatic cancer) cells. The experiment is described as follows: SRB growth inhibition, MiaPaCa2. It counts as cell-based, human. The settings on record: 96 hr, SRB assay; read-out: short-term 96 hr IC50 MiaPaCa2. Here is the method:
(§1) Human cancer cell lines and the somatic human cell line WI-38 (lung fibroblast) were purchased from the American Type Culture Collection. Cell lines were maintained in appropriate medium supplemented with 10% foetal bovine serum (Invitrogen, UK), 2 mM L-glutamine (Invitrogen, Netherlands), and other components as specified by the suppliers. Cell lines were maintained at 37° C., 5% CO2 and routinely passaged. Drugs were dissolved in DMSO and filtered through 0.22 μm pore-size filter units before addition to cell line appropriate media. Cellular growth inhibition was measured using the sulforhodamine B (SRB) assay in 96 well plates. Fifty percent inhibitory concentrations (IC50) were determined by taking the mean absorbance at 540 nm for each drug concentration expressed as a percentage of the absorbance of untreated control wells.

A further experiment has as its system MCF7 (breast) cells. Nature of the experiment: SRB growth inhibition, MCF7. The settings on record: 96 hr, SRB assay; read-out: short-term 96 hr IC50 MCF7. It counts as cell-based, human. Here is the method: as §1
The subject of experiment [3] is ALT (Alternative Lengthening of Telomeres) cell line. The experiment is described as follows: SRB growth inhibition, ALT. It counts as cell-based, human. The settings on record: 96 hr, SRB assay; read-out: short-term 96 hr IC50 ALT. Here is the method:
as §1

The subject of experiment [4] is human telomeric (F21T) G-quadruplex DNA. Nature of the experiment: FRET quadruplex stabilisation assay, F21T. It counts as binding. The settings on record: compound at 1 μM, 60 mM potassium cacodylate buffer pH 7.4. An excerpt:
The ability of the naphthalene diimide compounds to stabilize quadruplex DNA sequences was investigated using a fluorescence resonance energy transfer (FRET) assay modified to be used as a high-throughput screen in a 96-well format. Several quadruplex sequences were studied (including the human telomeric G-quadruplex DNA sequence 5′-FAM-d(GGG[TTAGGG]3)-TAMRA-3′ and the duplex sequence 5′-FAM-d[…]-HEG-[…]-TAMRA-3′ (HEG linker: [(—CH2—CH2—O—)6.
The labelled oligonucleotides have attached to them the donor fluorophore FAM: 6-carboxyfluorescein and the acceptor fluorophore TAMRA: 6-carboxytetramethylrhodamine. The FRET probe sequences were diluted from stock to the correct concentration (400 nM) in a 60 mM potassium cacodylate buffer (pH 7.4) and then annealed by heating to 85° C. for 10 min, followed by cooling to room temperature in the heating block. The compound was stored as a 10 mM stock solution in DMSO; final solutions (at 2× concentration) were prepared using 10 mM HCl in the initial 1:10 dilution, after which 60 mM potassium cacodylate buffer (pH 7.4) was used in all subsequent steps. The maximum HCl concentration in the reaction volume (at a ligand concentration of 20 μM) is thus 200 μM, well within the range of the buffer used. Relevant controls were also performed to check for interference with the assay. 96-Well plates (MJ Research, Waltham, Mass.) were prepared by aliquoting 50 μl of the annealed DNA into each well, followed by 50 μl of the compound solutions. Measurements were made on a DNA Engine Opticon (MJ Research) with excitation at 450-495 nm and detection at 515-545 nm. Fluorescence readings were taken at intervals of 0.5° C. in the range 30-100° C., with a constant temperature being maintained for 30 s prior to each reading to ensure a stable value. Final analysis of the data was carried out using a script written in the program Origin 7.0 (OriginLab Corp., Northampton, Mass.). The advanced curve-fitting function in Origin 7.0 was used for calculation of ΔTm values. All determinations were performed in triplicate or better. Esds in ΔTm are ±0.1° C.

Experiment [5] deals with WI38 (lung fibroblast) cells. Nature of the experiment: SRB growth inhibition, WI38. It counts as cell-based, human. As to conditions: 96 hr, SRB assay; read-out: short-term 96 hr IC50 WI38. Here is the method: as §1

Take `O=C1c2ccc3c4c(c(NCCN5CCCC5)cc(c24)C(=O)N1CCCN1CCOCC1)C(=O)N(CCCN1CCOCC1)C3=O` [Compound 4c, 2,7-bis(3-morpholinopropyl)-4-((2-(pyrrolidin-1-yl)ethyl)amino)benzo[Imn][3,8]phenanthroline-1,3,6,8(2H,7H)-tetraone]: in experiment [1], the “anti-tumour response (tumour growth curve)” value is listed as “highly significant anti-tumour response”. Also, the IC50 in experiment [2] came out at 12 nM; in the experiment on MCF7 (breast) cells it was 159 nM; in experiment [3] it was 93 nM; in experiment [5], 1190 nM. In addition, the “ΔTm F21T” value in experiment [4] came out at 11.8 °C.
